Laboratory results: patent US7902354B2, “Lapachone compounds and methods of use thereof” (ArQule, Inc., priority 2006, dated 2011)

Tests used:
Format in all cases: cell-based
[1] = system: A549 human lung carcinoma cells; experiment: MTS cell viability assay, A549 human lung carcinoma cells; conditions: A549, 4 h compound incubation, MTS, read-out: IC50 Values, Cancerous Cells, Lung A549
[2] = system: DLD-1 human colon carcinoma cells; experiment: MTS cell viability assay, DLD-1 human colon carcinoma cells; conditions: DLD-1, 4 h compound incubation, MTS, read-out: IC50 Values, Cancerous Cells, Colon DLD-1
[3] = system: DU-145 human prostate carcinoma cells; experiment: MTS cell viability assay, DU-145 human prostate carcinoma cells; conditions: DU-145, 4 h compound incubation, MTS, read-out: IC50 Values, Cancerous Cells, Prostate DU-145
[4] = system: K-562 human leukemia cells; experiment: MTS cell viability assay, K-562 human leukemia cells; conditions: K562, K-562, 4 h compound incubation, MTS, read-out: IC50 Values, Cancerous Cells, Leukemia K-562
[5] = system: PACA-2 human pancreatic carcinoma cells; experiment: MTS cell viability assay, PACA-2 human pancreatic carcinoma cells; conditions: PACA-2, 4 h compound incubation, MTS, read-out: IC50 Values, Cancerous Cells, Pancreas PACA-2
[6] = system: NCM-460 normal colon epithelial cells; experiment: MTS cell viability assay, NCM-460 normal colon epithelial cells; conditions: for IC50: Homo sapiens, NCM460, NCM-460, 4 h compound incubation, MTS, read-out: IC50 Values, Normal Cells, Colon NCM-460; for Fold Selectivity (NCM-460/DLD1): ratio of IC50 NCM-460 / DLD1

Row | IC50 [1] [µM] | IC50 [2] [µM] | IC50 [3] [µM] | IC50 [4] [µM] | IC50 [5] [µM] | SMILES | IC50 [6] [µM] | Fold Selectivity (NCM-460/DLD1) [6]
1 | 5 | 3.12 | 4.05 | 1.63 | 1.44 | CC(C)CN1CCC2(CC1)CSC1=C(O2)c2ccccc2C(=O)C1=O [Compound 126, 1′-isobutylspiro[naphtho[1,2-b][1,4]oxathiine-2,4′-piperidine]-5,6-dione] | 5.26 | 1.7
2 | 18.3 | 3.53 | 4.25 | 3.81 | 3.35 | Cc1nn(C)c(C)c1S(=O)(=O)N1CCC2(CC1)CSC1=C(O2)c2ccccc2C(=O)C1=O [Compound 80, 1′-[(1,3,5-trimethyl-1H-pyrazol-4-yl)sulfonyl]spiro[naphtho[1,2-b][1,4]oxathiine-2,4′-piperidine]-5,6-dione] | 12.9 | 3.7
3 | 6.72 | 1.69 | 3.92 | 1.53 | 1.55 | O=C1C(=O)c2ccccc2C2=C1SCC1(CCN(CC(O)CC(F)(F)F)CC1)O2 (stereo not drawn) [Compound 160, 1′-(4,4,4-trifluoro-2-hydroxybutyl)spiro[naphtho[1,2-b][1,4]oxathiine-2,4′-piperidine]-5,6-dione] | 5.56 | 3.3
4 | 19.4 | 4.45 | 7.82 | 2.93 | 4.02 | CS(=O)(=O)N1CCC2(CC1)CSC1=C(O2)c2ccccc2C(=O)C1=O [Compound 75, 1′-(methylsulfonyl)spiro[naphtho[1,2-b][1,4]oxathiine-2,4′-piperidine]-5,6-dione] | 9.56 | 2.1
5 | 11.2 | 1.54 | 3.99 | 2.97 | 1.83 | O=C1C(=O)c2ccccc2C2=C1SCC1(CCN(C(=O)Oc3ccccn3)CC1)O2 [Compound 112, pyridin-2-yl 5,6-dioxo-5,6-dihydro-1′H-spiro[naphtho[1,2-b][1,4]oxathiine-2,4′-piperidine]-1′-carboxylate] | 6.3 | 4.1
6 | > 100 | 12.3 | 13.7 | 12.3 | 12.1 | Cc1nn(C)c(Cl)c1S(=O)(=O)N1CCC2(CC1)CSC1=C(O2)c2ccccc2C(=O)C1=O [Compound 81, 1′-[(5-chloro-1,3-dimethyl-1H-pyrazol-4-yl)sulfonyl]spiro[naphtho[1,2-b][1,4]oxathiine-2,4′-piperidine]-5,6-dione] | 30.2 | 2.5
7 | 3.31 | 3.04 | 0.888 | 3.11 | 1.34 | O=C1C(=O)c2ccccc2C2=C1SCC1(CCN(C(=O)Nc3ccc(Cl)c(Cl)c3)CC1)O2 [Compound 87, N-(3,4-dichlorophenyl)-5,6-dioxo-5,6-dihydro-1′H-spiro[naphtho[1,2-b][1,4]oxathiine-2,4′-piperidine]-1′-carboxamide] | 30.5 | 10.0
8 | 6.9 | 1.46 | 2.7 | 1.39 | 1.44 | C=CCN1CCC2(CC1)CSC1=C(O2)c2ccccc2C(=O)C1=O [Compound 131, 1′-allylspiro[naphtho[1,2-b][1,4]oxathiine-2,4′-piperidine]-5,6-dione] | 2.95 | 2.0
9 | 42.8 | 16.9 | 7.41 | 21 | 9.22 | CCCCCCCCCCN1CCC2(CC1)CSC1=C(O2)c2ccccc2C(=O)C1=O [Compound 128, 1′-decylspiro[naphtho[1,2-b][1,4]oxathiine-2,4′-piperidine]-5,6-dione] | 40.8 | 2.4
10 | 22.6 | 4.27 | 4.63 | 4.14 | 4.33 | O=C1C(=O)c2ccccc2C2=C1SCC1(CCN(c3cnccn3)CC1)O2 [Compound 229, 1′-pyrazin-2-ylspiro[naphtho[1,2-b][1,4]oxathiine-2,4′-piperidine]-5,6-dione] | 12.8 | 3.0
11 | 42.2 | 13.7 | 12.2 | 14.2 | 11 | Cc1nn(-c2ccccc2)nc1C(=O)N1CCC2(CC1)CSC1=C(O2)c2ccccc2C(=O)C1=O [Compound 58, 1′-[(5-methyl-2-phenyl-2H-1,2,3-triazol-4-yl)carbonyl]spiro[naphtho[1,2-b][1,4]oxathiine-2,4′-piperidine]-5,6-dione] | 79.9 | 5.8
12 | 8.52 | 2.41 | 3.69 | 2.49 | 2.81 | C=COC(=O)N1CCC2(CC1)CSC1=C(O2)c2ccccc2C(=O)C1=O [Compound 94, vinyl 5,6-dioxo-5,6-dihydro-1′H-spiro[naphtho[1,2-b][1,4]oxathiine-2,4′-piperidine]-1′-carboxylate] | 9.48 | 3.9
13 | 7.29 | 1.42 | 1.59 | 3.27 | 1.39 | COc1ccc(OCC(O)CN2CCC3(CC2)CSC2=C(O3)c3ccccc3C(=O)C2=O)cc1 (stereo not drawn) [Compound 175, 1′-[2-hydroxy-3-(4-methoxyphenoxy)propyl]spiro[naphtho[1,2-b][1,4]oxathiine-2,4′-piperidine]-5,6-dione] | 6.12 | 4.3
14 | 6.73 | 1.92 | 3.08 | 2.31 | 1.44 | O=C1C(=O)c2ccccc2C2=C1SCC1(CCN(CC(O)COCc3ccco3)CC1)O2 (stereo not drawn) [Compound 165, 1′-[3-(2-furylmethoxy)-2-hydroxypropyl]spiro[naphtho[2-b][1,4]oxathiine-2,4′-piperidine]-5,6-dione] | 4.71 | 2.5
15 | 51.4 | 10.9 | 5.13 | 12.3 | 4.72 | CCCCC(CC)COC(=O)N1CCC2(CC1)CSC1=C(O2)c2ccccc2C(=O)C1=O (stereo not drawn) [Compound 95, 2-ethylhexyl 5,6-dioxo-5,6-dihydro-1′H-spiro[naphtho[1,2-b][1,4]oxathiine-2,4′-piperidine]-1′-carboxylate] | 37.7 | 3.5
16 | 24.8 | 4.29 | 12.2 | 4.37 | 5.36 | O=C1C(=O)c2ccccc2C2=C1SCC1(CCN(C(=O)c3ccncc3)CC1)O2 [Compound 57, 1′-isonicotinoylspiro[naphtho[1,2-b][1,4]oxathiine-2,4′-piperidine]-5,6-dione] | 9.91 | 2.3
17 | 7.57 | 1.49 | 1.91 | 1.74 | 1.33 | O=C1C(=O)c2ccccc2C2=C1SCC1(CCN(C(=O)c3cccc(C(F)(F)F)c3)CC1)O2 [Compound 54, 1′-[3-(trifluoromethyl)benzoyl]spiro[naphtho 1,2-b][1,4]oxathiine-2,4′-piperidine-5,6-dione] | 11 | 7.4
18 | 6.16 | 1.36 | 1.55 | 1.48 | 1.09 | O=C1C(=O)c2ccccc2C2=C1SCC1(CCN(CC(O)COc3ccccc3Cl)CC1)O2 (stereo not drawn) [Compound 172, 1′-[3-(2-chlorophenoxy)-2-hydroxypropyl]spiro[naphtho[1,2-b][1,4]oxathiine-2,4′-piperidine]-5,6-dione] | 5.53 | 4.1
19 | 31 | 4.01 | 9.11 | 4.54 | 4.29 | O=C1C(=O)c2ccccc2C2=C1SCC1(CCN(C(=O)Oc3ccccc3)CC1)O2 [Compound 92, phenyl 5,6-dioxo-5,6-dihydro-1′H-spiro[naphtho[1,2-b][1,4]oxathiine-2,4′-piperidine]-1′-carboxylate] | 13.1 | 3.3
20 | 27.9 | 9.27 | 12 | 10.6 | 4.84 | O=C1C(=O)c2ccccc2C2=C1SCC1(CCN(C(=O)C3CCCCC3C(=O)O)CC1)O2 (stereo not drawn) [Compound 231, 2-[(5,6-dioxo-5,6-dihydro-1′H-spiro[naphtho[1.2-b][1,4]oxathiine-2,4′-piperidin]-1′-yl)carbonyl]cyclohexanecarboxylic acid] | 12.3 | 1.3

Row | SMILES | IC50 [1] [µM] | IC50 [2] [µM] | IC50 [3] [µM] | IC50 [4] [µM] | IC50 [5] [µM] | IC50 [6] [µM] | Fold Selectivity (NCM-460/DLD1) [6]
21 | CC(C)COCC(O)CN1CCC2(CC1)CSC1=C(O2)c2ccccc2C(=O)C1=O (stereo not drawn) [Compound 174, 1′-(2-hydroxy-3-isobutoxypropyl)spiro[naphtho[1,2-b][1,4]oxathiine-2,4′-piperidine]-5,6-dione] | 6.29 | 1.3 | 1.55 | 1.61 | 1.25 | 3.2 | 2.5
